Source: patent US11136370B2, “Compositions and methods for thrombin generation assay” (The Scripps Research Institute, priority 2016, dated 2021)
“Also recorded” adds a separate entry of the source.

How the values were obtained:
thrombin generation (TG) = assay type: biochemical, human; conditions: recalcified PRP containing CTI
Protocol: TG in PRP or reconstituted PRP was evaluated as known to those skilled in the art. Native PRP was prepared from blood collected into final 12.9 mM trisodium citrate by centrifugation at 250 g for 10 min at 25° C. The platelet count was adjusted to 180×10^3/μl by dilution with homologous PPP obtained by centrifuging PRP for 10 min at 1,500 g. CTI was added at 30-50 μg/ml depending on calibrated potency as assessed by FXIIa inhibition. Reconstituted PRP was prepared with washed platelets prepared from normal PRP by adding ⅕th volume of acid citrate-dextrose (71 mM citric acid, 85 mM trisodium citrate, and 111 mM dextrose, pH 4.5) and 5 U/ml apyrase; following centrifugation at 1,500 g for 10 minutes at 25° C., the platelet pellet was resuspended into PPP lacking FVII (George King Bio-Medical) or FIX (Haematologic Technologies) to give a final platelet count of 180·103/μl PRP was mixed with varying concentrations of rTF and/or 20 pM FIXa in 96-well microtiter plates. The reaction was started by adding 18 mM CaCl2 with 360 μM of the thrombin substrate benzyloxycarbonyl-glycyl-glycyl-L-arginine coupled to the fluorogenic group 7-amido-4-methylcoumarin (Gly-Gly-Arg-AMC; Bachem Americas, Torrance, Calif.). Fluorescence was measured continuously at 37° C. for up to 40 min in a spectrofluorometer (355/460 nm excitation/emission). The rate of fluorescence intensity increase as a function of time (dF/dt) was calculated with Turbo Delphi 2006 (Borland Software Corporation, Austin, Tex.) and converted to thrombin-equivalent concentration (nM) using a calibration curve. The endogenous thrombin potential (ETP) of samples, i.e. total generated thrombin activity, was determined from the area under the TG curve. When specified, TG was measured with a discontinuous 2-stage assay with a detection limit of 5 pM. For this, TG was induced by 0.15 pM rTF and 18 mM CaCl2 in reconstituted FVII-deficient PRP including 30 μg/ml CTI with 400 pM WT FVIIa or iFVIIa without or with 20 pM FIXa. After incubation for up to 11 min at 37° C., reactions were terminated by adding 20 mM EDTA and generated thrombin was measured using the highly sensitive thrombin substrate H-D-CHA-Ala-Arg-AMC.2AcOH (Pefafluor TH, Pentapharm, Basel, Switzerland) at 50 μM concentration. In other experiments, TG was induced by TFiFVIIa-FXa-TFPI or TF-iFVIIa-FXa-NAPc2. These stable complexes were pre-formed by incubating 5 nM FXa, 10 nM TF, 10 nM iFVIIa and 40 nM TFPI or NAPc2 in the presence of 2.5 mM CaCl2 for 2 min at 37° C. Complexes were added into FVII-deficient PRP, followed by incubation for 8 min at 37° C.
PRP was prepared from blood collected into trisodium citrate (final concentration 0.0129 M) by centrifugation for at 250 g for 10 min at 25° C.; the platelet count was adjusted at 180.103 per μl by diluting with homologous platelet-poor plasma (PPP) obtained by centrifuging PRP for an additional 10 min at 1,500 g. When indicated, CTI was added at 30 to 50 μg/ml depending on calibrated potency measured by FXIIa inhibition. Reconstituted PRP was prepared by adding normal washed platelets into PPP (without or with CTI) lacking FVII, FVIII (both from George King Bio-Medical, Overland Park, Kans.) or FIX (Haematologic Technologies). […] generation in PRP was measured as described by Hemker et al. 53 μl of PRP was mixed in 96-well microtiter plates with 15 μl of a solution containing rTF and/or one of the intrinsic coagulation pathway proteases—FXIIa, FXIa or FIXa—to achieve the indicated final concentrations. Antibodies or inhibitors were also added at this point at the concentration indicated for each specific case. The reaction was started by adding between 15 and 20 μl of 100 mM CaCl2 and 2 mM fluorogenic substrate, benzyloxycarbonyl-glycyl-glycyl-L-arginine-7-amido-4-methylcoumarin (Gly-Gly-Arg-AMC; Bachem Americas, Torrance, Calif.).

immobilized rTF = assay: Blood perfusion over immobilized rTF, volume of platelet aggregates and fibrin; assay type: cell-based, human
Protocol: (§1) Glass coverslips treated with 0.2 mg/ml poly-L-lysine for 6 h at 37° C. were coated with rTF for 18-20 hours at 37° C. or 2.5 mg/ml acid-insoluble type I collagen for 2 hours at 22-25° C. Then they were rinsed with pH 7.4 buffered-saline, assembled in a rectangular flow chamber with a 125 μm-high silicon gasket and positioned on a confocal microscope stage for analysis. Venous blood for testing was collected into final 10.9 mM trisodium citrate using a plastic syringe for normal volunteers or Vacutainer tubes (Becton Dickinson, Buccinasco, Milan) for patients and controls. Before perfusion at a flow rate yielding an initial wall shear rate of 300 s^−1 maintained with a syringe pump (Harvard Apparatus, Holliston, Mass.), CaCl2 was added to obtain 1.29 mM Ca^2+. In the blood of patients—potentially hypercoagulable—and related controls, lepirudin (50 nM) was also added to neutralize thrombin possibly generated before testing. […] For experiments with WT and mutant FVIIa, cells from group O citrated blood, containing 50 μg/ml CTI and 10 U/ml (ADPase activity) apyrase, were washed free of plasma by sequential centrifugation steps at 1500 g for 7 min. After the first, plasma was replaced with an equal volume of calcium-free Tyrode buffer, pH 6.5, with 5 U/ml apyrase; then with buffer and 1.25 U/ml apyrase; and finally with human FVII deficient plasma (George King Bio-Medical, Overland Park, Kans.) up to the original blood volume. Cell count results in reconstituted and native blood were within 90%. Experiments in Milan (Italy) were performed with a Leica TCS SP5 microscope and HCX PL APO 63x/1.40 NA oil immersion objective (Leica Microsystems GmbH, Wetzlar, Germany); in La Jolla (California) with a Zeiss Axiovert 135M/LSM 410 and Plan-Apochromat 40x/1.40 NA oil immersion objective (Carl Zeiss AG, Oberkochen, Germany).
(§2) Platelets adhering and aggregating onto the surface were visualized by adding quinacrine-HCl (mepacrine; 10 μg/ml; Sigma-Aldrich) to blood. Deposited fibrin was visualized with Alexa Fluor 546-labeled (Invitrogen) mouse monoclonal IgG (50 μg/ml) specific for the B chain of mouse and human fibrin (HB-8545; ATCC). Blood was perfused for 3-5 min at 37° C. with a syringe pump (Harvard Apparatus Inc.) at a flow rate yielding an initial (in the unobstructed flow path) wall shear rate of 300 s^−1. This was followed by buffer (DMEM) for 2 minutes to facilitate fibrin quantification by confocal z section analysis using a Zeiss Axiovert 135M/LSM 410 microscope (Carl Zeiss) and Plan-Apochromat×63/1.40 NA oil immersion objective. Image analysis was performed with NIH ImageJ64. Deposited fibrin volume was measured from confocal sections collected at 4 preset positions in the flow chamber. Total volume of deposited platelets and fibrin was calculated from the sum of the respective area coverage per section multiplied by the z interval (2 μm). All studies involving human subjects were conducted following institutionally approved protocols.
TF-coated glass coverslips were perfused with venous blood at a wall shear rate of 300 s^−1. A Zeiss Axiovert 135M/LSM 410 and Plan-Apochromat 40x/1.40 NA oil immersion objective (Carl Zeiss AG, Oberkochen, Germany) was used to visualize platelets/leukocytes and fibrin stained with mepacrine and a specific anti-body, respectively. Image analysis to calculate volumes was performed as described herein.
Glass coverslips treated with 0.2 mg/ml poly-L-lysine for 6 h at 37° C. were coated with rTF for 18-20 hours at 37° C., rinsed with buffered-saline and assembled in a rectangular flow chamber with a 125 μm-high silicon gasket. Venous blood was collected into final 10.9 mM trisodium citrate using a plastic syringe. CaCl2 was added to obtain 1.29 mM Ca^2+ before perfusion at a wall shear rate of 300 s-1 maintained with a syringe pump (Harvard Apparatus, Holliston, Mass.). […]

initial TG = assay: Discontinuous 2-stage assay of initial TG in platelet-poor plasma; assay type: biochemical, human
Protocol: FIG. 21 illustrates, in accordance with embodiments herein, TG assays in FVIII-deficient PPP without or with anti-FVIII inhibitors. (A) Initial TG in discontinuous 2-stage assay was induced by adding 150 fM rTF/200 pM FIXa and 5 μM PL, followed by incubation for 5 min at 37° C. Each column indicates mean+SEM (n=3) of generated FIIa. (B) Comparison of dose-response curve of added FVIII in TG in FVIII-deficient plasma by discontinuous 2-stage assay with that by continuous assay.
FIG. 22 illustrates, in accordance with embodiments herein, FVIIIa-dependent and -independent TG in plasma from Coumadin-treated patients. FVIIIa-dependent TG was induced by adding 150 fM rTF/200 pM FIXa with 1.3 μM PL, while FVIIIa-independent TG was by 1.2 pM rTF with 1.3 μM PL. Each column indicates mean+SEM (n=3) of generated FIIa after 3 min of incubation.
To establish highly sensitive TG assay method, the inventors made a screening of FIIa substrates with high affinity and turnover rate by determining kinetic parameters and then constructed a calibration curve with known concentrations of a FIIa calibrator. In the studies, they found two fluorogenic substrates H-D-cyclohexyl-alanyl-alanyl-argininyl-amidomethylcoumarin (AMC) (Pefafluor TH) and butyloxycarbonyl-valyl-prolinyl-argininyl-AMC (V-P-R-AMC) were suitable for quantifying much low concentrations of FIIa activity with a detection limit of ˜5 pM (FIG. 17). Initial TG was measured with “discontinuous 2-stage assay” using the high sensitive substrate. Briefly, TG was initiated by combined addition of rTF and FIXa with 18 mM CaCl2 into plasma, followed by incubation for up to 5 min at 37° C. After incubation, reactions were terminated with 20 mM EDTA and generated FIIa was measured using the highly sensitive FIIa substrate Pefafluor TH or V-P-R-AMC. In the assays, combined addition of 150 fM rTF and 200 pM FIXa time-dependently produced FIIa in normal platelet-poor plasma (PPP) prepared from healthy donors (FIG. 18A). […] To further validate the assay method, reproducibility of the TG assay method was examined by determination of intra-assay and inter-assay coefficient of variations (CV) using manual assay protocol.

[1] = system: fibrillar collagen type I; assay: Blood perfusion over fibrillar collagen type I, volume of platelet aggregates and fibrin; assay type: cell-based, human; conditions: blood of treated patients, collagen surface
Protocol: The volume of platelet aggregates and deposited fibrin was measured by confocal microscopy. Statistical analysis by one-way ANOVA and Tukey post-test. *P<0.05; **P<0.01; ***P<0.001.
as §1, with “Cell count results in reconstituted and native blood were within 90%.” left out
as §2, with “Blood was perfused for 3-5 min at 37° C. with a syringe pump (Harvard Apparatus Inc.) at a flow rate yielding an initial (in the unobstructed flow path) wall shear rate of 300 s^−1.” left out, “Image analysis was performed with NIH ImageJ64.” left out, “All studies involving human subjects were conducted following institutionally approved protocols.” left out

TF-FVIIa = assay: FXa generation by TF-FVIIa in reactions with purified components; assay type: biochemical, human; conditions: reconstituted system
FVIII = FVIII activation in rTF/FVIIa-initiated reactions with FX, prothrombin, FVIII, FV (immunoblot); conditions: thrombin blocked with 4 μM DAPA
Protocol: Quantification of generated FVIIIa-A1 calibrated with known quantities of the fragment. (B) FVIIIa activity calculated from FXa generation in reactions as in (A), but with 10 nM FIXa added and incubated for 180 s at 37° C. (n=4-12). FXa generation depend-ent on FVIIIa-FIXa activity was calculated by subtracting FXa generated by FVIIa and FIXa added individually from that by FVIIa/FIXa added together. (C) FVIIIa activity generated and calculated in reaction as in (A, B) but with the addition of 10 nM TFPIα. Results in A (bottom), B and C—shown as 25th-75th percentile bars, min-to-max whiskers, line at the median; or min-to-max floating bars with line at the mean when n≤3—were analyzed by ANOVA/Tukey tests. ***P<0.001; NS, not significant.
Reactions in 50 mM Tris-buffered saline, pH 7.4, with 0.1% bovine serum albumin included 0.7 nM FVIII, 3 nM FV, 135 nM FX and 1 μM prothrombin without/with 4 μM DAPA. TFPI and other inhibitors were added as indicated. […] After quenching the reaction with 10 mM EDTA, generated FXa was measured with S-2765 (180 μM). FVIIIa procoagulant activity was measured as FIXa-dependent FXa generation; FVIIIa procoagulant activity generated by the nascent TF-FVIIa-FXa complex was calculated by subtracting the amount of FXa produced in reactions initiated by FVIIa and FIXa individually from that produced in reactions initiated by FVIIa/FIXa combined. […]

COc1ccc(-n2nc(C(N)=O)c3c2C(=O)N(c2ccc(N4CCCCC4=O)cc2)CC3)cc1 [apixaban]
difference in dose response between rivaroxaban and apixaban (thrombin generation (TG)): ~3 fold

recombinant [Leu1-Thr2]-63-desulfohirudin [lepirudin]
effect on deposited fibrin volume in the flow chamber (immobilized rTF; lepirudin 50 nM, preliminary experiments): limited effect

CC(=O)CC(c1ccccc1)c1c(O)c2ccccc2oc1=O (centres unmarked) [warfarin]
FVIIIa-independent TG (initial TG; 1.2 pM rTF alone without FIXa, patient plasma): abolished even at lower INR | initial FVIIIa-dependent TG (initial TG; patient plasma with INR 1.5, 150 fM rTF/200 pM FIXa, 1.3 μM PL, 3 min): ~15 % of normal plasma | initial FVIIIa-dependent TG (initial TG; patient plasma with INR 2.9, 150 fM rTF/200 pM FIXa, 1.3 μM PL, 3 min): ~5 % of normal plasma | initial FVIIIa-dependent TG (initial TG; patient plasma with much higher INR values): completely abolished | mean volume of platelet aggregates vs controls [1]: not significantly different | volume of deposited fibrin vs controls [1]: significantly reduced; also recorded: markedly reduced | fibrin deposition (immobilized rTF; blood of treated patients, high density TF surface): significantly reduced | volume of deposited fibrin (immobilized rTF; blood of treated patients, higher rTF coating concentration, 300 s^-1, 5 min): markedly reduced fibrin formation | volume of deposited fibrin vs untreated controls (immobilized rTF; blood of treated patients, lower rTF coating concentration, 300 s^-1, 5 min): markedly smaller | volume of platelet aggregates vs controls (immobilized rTF; blood of treated patients, rTF coating 20 and 40 pM): significantly reduced on both rTF surfaces

TFPI with protein S: TFPI with protein S (PS) cofactor
reduction of FXa produced by TF-FVIIa (TF-FVIIa): > 75%

CCC1CCN(C(=O)C(CCCN=C(N)N)NS(=O)(=O)c2cccc3c(N(C)C)cccc23)CC1 (centres unmarked) [DAPA, dansylarginine N-(3-ethyl-1,5-pentanediyl)amide]
FVIIIa still detectable (FVIII): ~15%
